This is an account of results in the NIST ThermoML archive (doi:10.1021/je060139a).

Molecules are shown by their SMILES. Several values for one entry are separate records, joined by “and”; a condition that tells them apart may be missing. Equal entries are not always repeated. Numbers after ± are expanded uncertainties.

The nature of data set [1]: refractive index (Na D-line) (dimensionless). As to conditions: 101.33 kPa, Liquid, Standard Abbe refractometry.
For data set [2] the following is noted: for surface tension liquid-gas: Wilhelmy plate method; for mass density: 298.15 K, 101.33 kPa, Liquid.
Data set [3] is described as follows: refractive index (Na D-line) (dimensionless); xn = mol fraction of the nth substance listed. The following applies: 100.5 kPa, Liquid, Standard Abbe refractometry, x2 = 0.
Data set [4] can be described thus: xn = mol fraction of the nth substance listed. As to conditions: Wilhelmy plate method, x2 = 0.

In general, refractive index refers to a measure of how strongly the sample bends light. What is called surface tension liquid-gas is the force per length acting along the surface. By mass density is commonly meant the mass of a sample divided by its volume. Take `CCOC(=O)CC(C)C` [ethyl 3-methylbutanoate]: the refractive index was 1.3988 ± 0.00037 in data set [1] (288.15 K), 1.39401 ± 0.00037 in data set [1] (298.18 K), 1.38931 ± 0.00037 in data set [1] (308.15 K) and 1.38458 ± 0.00037 in data set [1] (318.15 K). The surface tension liquid-gas in data set [2] (288.15 K) came to 24.4 ± 0.42 mN/m; in data set [2] (298.18 K) it was 23.5 ± 0.42 mN/m; in data set [2] (308.15 K) it was 22.45 ± 0.42 mN/m; in data set [2] (318.15 K), 21.6 ± 0.41 mN/m. Also, the mass density in data set [2] was found to be 859.78 ± 0.82 kg/m3.
For the molecule `CCO` [ethanol] + CCOC(=O)c1ccccc1O, the refractive index in data set [3] (288.15 K) turned out to be 1.36333 ± 0.00031; in data set [3] (298.18 K), 1.35941 ± 0.00031; in data set [3] (308.15 K), 1.35531 ± 0.00031; in data set [3] (318.15 K) it was 1.35148 ± 0.00031. Moreover, the surface tension liquid-gas in data set [4] (288.15 K) came to 23 ± 0.4 mN/m; in data set [4] (298.18 K), 22.3 ± 0.4 mN/m; in data set [4] (308.15 K) it was 21.5 ± 0.4 mN/m; in data set [4] (318.15 K), 20.6 ± 0.4 mN/m.
With `CCO` [ethanol] + CCOC(=O)CC(C)=O, the refractive index is 1.3633 ± 0.0003 in data set [3] (288.15 K), 1.3594 ± 0.0003 in data set [3] (298.18 K), 1.3553 ± 0.0003 in data set [3] (308.15 K) and 1.3515 ± 0.0003 in data set [3] (318.15 K). Besides, the surface tension liquid-gas turned out to be 23 ± 0.4 mN/m in data set [4] (288.15 K), 22.3 ± 0.4 mN/m in data set [4] (298.18 K), 21.5 ± 0.4 mN/m in data set [4] (308.15 K) and 20.6 ± 0.4 mN/m in data set [4] (318.15 K).
Take `CCOC(=O)CC(C)=O` [ethyl 3-oxobutanoate]: the refractive index is on record as 1.4209 ± 0.0004 in data set [1] (288.15 K), 1.4166 ± 0.0004 in data set [1] (298.18 K), 1.4125 ± 0.0004 in data set [1] (308.15 K) and 1.408 ± 0.0004 in data set [1] (318.15 K). The surface tension liquid-gas in data set [2] (288.15 K) is recorded as 33.3 ± 0.42 mN/m; in data set [2] (298.18 K), 32.3 ± 0.42 mN/m; in data set [2] (308.15 K) it was 31.1 ± 0.42 mN/m; in data set [2] (318.15 K) it was 30 ± 0.42 mN/m. Besides, in data set [2], the mass density was 1023.45 ± 0.52 kg/m3.
As for `CCO` [ethanol] + CCC(=O)OCc1ccccc1, the refractive index is reported as 1.36333 ± 0.00031 in data set [3] (288.15 K), 1.35941 ± 0.00031 in data set [3] (298.18 K), 1.35531 ± 0.00031 in data set [3] (308.15 K) and 1.35148 ± 0.00031 in data set [3] (318.15 K). The surface tension liquid-gas in data set [4] (288.15 K) was determined as 23 ± 0.4 mN/m; in data set [4] (298.18 K), 22.3 ± 0.4 mN/m; in data set [4] (308.15 K), 21.5 ± 0.4 mN/m; in data set [4] (318.15 K), 20.6 ± 0.4 mN/m.
As for `CCOC(=O)c1ccccc1O` [ethyl 2-hydroxybenzoate], the refractive index in data set [1] (288.15 K) is recorded as 1.52481 ± 0.00032; in data set [1] (298.18 K), 1.52022 ± 0.00032; in data set [1] (308.15 K), 1.51573 ± 0.00032; in data set [1] (318.15 K), 1.51116 ± 0.00032. The surface tension liquid-gas in data set [2] (288.15 K) was determined as 37.5 ± 0.41 mN/m; in data set [2] (298.18 K) it was 36.3 ± 0.41 mN/m; in data set [2] (308.15 K), 35.2 ± 0.41 mN/m; in data set [2] (318.15 K), 34.4 ± 0.41 mN/m. The mass density in data set [2] came out at 1125 ± 0.4 kg/m3.
With `CCO` [ethanol] + CC(=O)OCc1ccccc1, the refractive index in data set [3] (288.15 K) came to 1.36333 ± 0.00031; in data set [3] (298.18 K) it was 1.35941 ± 0.00031; in data set [3] (308.15 K), 1.35531 ± 0.00031; in data set [3] (318.15 K), 1.35148 ± 0.00031. Moreover, the surface tension liquid-gas is given as 23 ± 0.4 mN/m in data set [4] (288.15 K), 22.3 ± 0.4 mN/m in data set [4] (298.18 K), 21.5 ± 0.4 mN/m in data set [4] (308.15 K) and 20.6 ± 0.4 mN/m in data set [4] (318.15 K).
Turning to `CCC(=O)OCc1ccccc1` [benzyl propanoate], the refractive index turned out to be 1.4995 ± 0.00034 in data set [1] (288.15 K), 1.49498 ± 0.00034 in data set [1] (298.18 K), 1.49074 ± 0.00034 in data set [1] (308.15 K) and 1.48611 ± 0.00034 in data set [1] (318.15 K). For the same molecule, the surface tension liquid-gas in data set [2] (288.15 K) is reported as 36 ± 0.41 mN/m; in data set [2] (298.18 K), 34.8 ± 0.41 mN/m; in data set [2] (308.15 K), 33.6 ± 0.41 mN/m; in data set [2] (318.15 K), 32.4 ± 0.41 mN/m. For the same molecule, the mass density in data set [2] worked out at 1027.6 ± 0.4 kg/m3.
Take `COC(=O)c1ccccc1` [methyl benzoate]: the refractive index in data set [1] (288.15 K) is on record as 1.51915 ± 0.00035; in data set [1] (298.18 K), 1.51467 ± 0.00035; in data set [1] (308.15 K) it was 1.50993 ± 0.00035; in data set [1] (318.15 K), 1.50514 ± 0.00035. For the same molecule, the surface tension liquid-gas in data set [2] (288.15 K) is recorded as 38.6 ± 0.43 mN/m; in data set [2] (298.18 K) it was 37.2 ± 0.43 mN/m; in data set [2] (308.15 K) it was 35.8 ± 0.43 mN/m; in data set [2] (318.15 K), 34.8 ± 0.42 mN/m. Moreover, the mass density in data set [2] was 1083.92 ± 0.68 kg/m3.
On to `CCO` [ethanol] + COC(=O)c1ccccc1, for which the refractive index in data set [3] (288.15 K) was found to be 1.36333 ± 0.00031; in data set [3] (298.18 K), 1.35941 ± 0.00031; in data set [3] (308.15 K), 1.35531 ± 0.00031; in data set [3] (318.15 K), 1.35148 ± 0.00031. The surface tension liquid-gas stood at 23 ± 0.4 mN/m in data set [4] (288.15 K), 22.3 ± 0.4 mN/m in data set [4] (298.18 K), 21.5 ± 0.4 mN/m in data set [4] (308.15 K) and 20.6 ± 0.4 mN/m in data set [4] (318.15 K).
Turning to `CC(=O)OCc1ccccc1` [benzyl ethanoate], the refractive index in data set [1] (288.15 K) is 1.50439 ± 0.00032; in data set [1] (298.18 K) it was 1.49982 ± 0.00032; in data set [1] (308.15 K), 1.49539 ± 0.00032; in data set [1] (318.15 K), 1.49064 ± 0.00032. The surface tension liquid-gas was found to be 37.7 ± 0.41 mN/m in data set [2] (288.15 K), 36.4 ± 0.41 mN/m in data set [2] (298.18 K), 35.3 ± 0.41 mN/m in data set [2] (308.15 K) and 34.1 ± 0.41 mN/m in data set [2] (318.15 K). Moreover, in data set [2], the mass density is 1050.75 ± 0.3 kg/m3.
As to `CCO` [ethanol], the refractive index in data set [1] (288.15 K) was 1.3633 ± 0.0003 and 1.36333 ± 0.00031; in data set [1] (298.18 K), 1.3594 ± 0.0003 and 1.35941 ± 0.00031; in data set [1] (308.15 K) it was 1.3553 ± 0.0003 and 1.35531 ± 0.00031; in data set [1] (318.15 K), 1.3515 ± 0.0003 and 1.35148 ± 0.00031. Further, the surface tension liquid-gas in data set [2] (288.15 K) came out at 23 ± 0.4 mN/m; in data set [2] (298.18 K) it was 22.3 ± 0.4 mN/m; in data set [2] (308.15 K), 21.5 ± 0.4 mN/m; in data set [2] (318.15 K) it was 20.6 ± 0.4 mN/m. In data set [2], the mass density turned out to be 785 ± 0.24 kg/m3.
As to `CCO` [ethanol] + CCOC(=O)CC(C)C, the refractive index turned out to be 1.36333 ± 0.00031 in data set [3] (288.15 K), 1.35941 ± 0.00031 in data set [3] (298.18 K), 1.35531 ± 0.00031 in data set [3] (308.15 K) and 1.35148 ± 0.00031 in data set [3] (318.15 K). The surface tension liquid-gas in data set [4] (288.15 K) is 23 ± 0.4 mN/m; in data set [4] (298.18 K), 22.3 ± 0.4 mN/m; in data set [4] (308.15 K), 21.5 ± 0.4 mN/m; in data set [4] (318.15 K), 20.6 ± 0.4 mN/m.
